Experimental data as given in the NIST ThermoML archive (doi:10.1016/j.jct.2007.05.011).
Numbers after ± are expanded uncertainties.

Experiment: xn = mol fraction of the nth substance listed
Conditions: 101 kPa, Liquid; for mass density: Vibrating tube method

NCCO.O=CO [2-hydroxyethylammonium formate] + CCO
Conditions	mass density, 288.15 K [kg/m3]	mass density, 290.65 K [kg/m3]	mass density, 293.15 K [kg/m3]	mass density, 295.65 K [kg/m3]	speed of sound, 288.15 K [m/s]	speed of sound, 290.65 K [m/s]	speed of sound, 293.15 K [m/s]	speed of sound, 295.65 K [m/s]
x2 = 0	1183.57 ± 31	1181.81 ± 31	1180.04 ± 31	1178.27 ± 31	1733.9 ± 9.9	1727.4 ± 9.9	1721.3 ± 9.8	1715.1 ± 9.8
x2 = 0.058	1172.99 ± 31	1171.33 ± 31	1169.68 ± 31	1168.03 ± 31	1741.5 ± 9.8	1736.2 ± 9.8	1730.9 ± 9.8	1725.6 ± 9.7
x2 = 0.098	1161.05 ± 31	1159.38 ± 31	1157.72 ± 30	1156.05 ± 30	1723 ± 9.6	1717.6 ± 9.6	1712.2 ± 9.6	1706.8 ± 9.6
x2 = 0.193	1135.72 ± 30	1134.02 ± 30	1132.33 ± 30	1130.64 ± 30	1681.5 ± 9.3	1675.9 ± 9.3	1670.3 ± 9.3	1664.8 ± 9.2
x2 = 0.296	1110.04 ± 30	1108.32 ± 30	1106.6 ± 30	1104.87 ± 30	1639 ± 8.9	1633.2 ± 8.9	1627.4 ± 8.9	1621.7 ± 8.9
x2 = 0.399	1079.51 ± 30	1077.76 ± 30	1076 ± 30	1074.24 ± 30	1587.5 ± 8.6	1581.4 ± 8.6	1575.3 ± 8.5	1569.2 ± 8.5
x2 = 0.5	1044.58 ± 30	1042.78 ± 30	1040.98 ± 30	1039.18 ± 30	1529.7 ± 8.2	1523.3 ± 8.2	1517 ± 8.2	–
x2 = 0.598	1006.57 ± 30	1004.72 ± 30	1002.88 ± 30	1001.03 ± 30	1468.7 ± 7.8	1461.9 ± 7.8	1455.1 ± 7.8	–
x2 = 0.701	963.374 ± 30	961.474 ± 30	959.571 ± 30	957.67 ± 30	1402.4 ± 7.5	1395.3 ± 7.4	1388.2 ± 7.4	–
x2 = 0.799	914.502 ± 30	912.536 ± 30	910.569 ± 30	908.602 ± 30	1333.5 ± 7.1	1326 ± 7	1318.5 ± 7	–
x2 = 0.9	859.222 ± 30	857.183 ± 30	855.141 ± 30	853.093 ± 30	1261.8 ± 6.7	1253.7 ± 6.7	1245.7 ± 6.7	–
x2 = 0.95	828.585 ± 30	826.503 ± 30	824.416 ± 30	822.326 ± 30	1223.4 ± 6.5	1215 ± 6.5	1206.8 ± 6.5	–
